# According to the supplement of paper PMC11208160:
# Assay: recombinant barcode read abundance after kanamycin selection (control-corrected) (log10(CPM+1)); higher = more efficient recombination; sequences stand for … in AGTGCAGAGAAAATCGGCCAGTTTTCTCTGCCTGCAGTCCGCATGCCGT…AGATTTATGCAGCGGACTGCCTTTCTCCCAAAGTGATAAACCGGACAGTATCATGGACCGGTTTTCCCGGTAATCCGTATTTGCAAGGTTGGTTTCACT; site = the 11-nt target
# Summary of the method: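 Reported as log10(CPM+1), each value stands for recombination efficiency. That efficiency is the averaged, control-corrected counts per million of barcodes found at recombinant junctions. Cells from a pooled E. coli library pairing targets with IS621 bridge RNA target-binding loops were plated twice on chloramphenicol/ampicillin LB agar (control) and twice on chloramphenicol/ampicillin/kanamycin with 0.1 mM IPTG.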
# 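Also: IS621 recombinase and bridge RNA in Escherichia coli cells.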
row,Sequence,recombinant barcode read abundance (log10)
1,CGCCCTACTTGGGTTCTAACCTGTTGCTT (site CGCCTAACTAA),0.491
2,CGCCTAACTTGGGTTCTAACCTGTTGCTT (site CGCCCTACTAA),0.0705
3,CGCCTAACTTGGGTTCTAACCTGTTGCTT (site CGCCTAACTAA),0.126
4,CGCCTCCCTTGGGTTCTAACCTGTTGCAT (site CGCCTCCCTAT),0.159
5,CGCCTCCCTTGGGTTCTAACCTGTTGCAT (site GGCCTCCCTAT),0
6,CGCGATCCTTGGGTTCTAACCTGTTGCGT (site AGCGACCCTAC),0.0431
7,CGCGATCCTTGGGTTCTAACCTGTTGCGT (site CGCGATCCTAC),0.834
8,CGCGCTCCTTGGGTTCTAACCTGTTGCCT (site CGCGATCCTAG),0.0445
9,CGCGCTCCTTGGGTTCTAACCTGTTGCCT (site CGCGCTCCTAG),0.245
10,CGCGCTCCTTGGGTTCTAACCTGTTGCCT (site CGCGGTCCTAG),0.0941
11,CGCGCTCCTTGGGTTCTAACCTGTTGCCT (site CGCGTTCCTAG),0.0658
12,CGCTTACCTTGGGTTCTAACCTGTTGCCT (site AGCTTACCTAG),0.143
13,CGCTTACCTTGGGTTCTAACCTGTTGCCT (site CGCTTACCTAG),0.0899
14,CGCTTACCTTGGGTTCTAACCTGTTGCCT (site GGCTTACCTAG),0.0208
15,CGCTTACCTTGGGTTCTAACCTGTTGCCT (site TGCTTACCTAG),0.192
16,CGCTTGTCTTGGGTTCTAACCTGTTGCCG (site CGCTTGTCTCG),0.134
17,CGCTTGTCTTGGGTTCTAACCTGTTGCCG (site CTCTTGTCTTG),0.0615
18,CGGACGCCTTGGGTTCTAACCTGTTGCCT (site CGGACGACTAG),0.352
19,CGGACGCCTTGGGTTCTAACCTGTTGCCT (site CGGACGCCTAG),0.892
20,CGGACGCCTTGGGTTCTAACCTGTTGCCT (site CGGACGGCTAG),1.51
21,CGGACGCCTTGGGTTCTAACCTGTTGCCT (site CGGACGTCTAG),0.25
22,CGGACTTCTTGGGTTCTAACCTGTTGCCT (site CAGACTTCTAG),0.182

row,Sequence,recombinant barcode read abundance (log10)
1,CGGACTTCTTGGGTTCTAACCTGTTGCCT (site CCGACTTCTAG),0.049
2,CGGACTTCTTGGGTTCTAACCTGTTGCCT (site CGGACTTCTAG),0.0521
3,CGGACTTCTTGGGTTCTAACCTGTTGCCT (site CTGACTTCTAG),0.0412
4,CGGAGAGCTTGGGTTCTAACCTGTTGCCT (site CAGAGAGCTAG),0.402
5,CGGAGAGCTTGGGTTCTAACCTGTTGCCT (site CCGAGAGCTAG),0.433
6,CGGAGAGCTTGGGTTCTAACCTGTTGCCT (site CGGAGAGCTAG),1.83
7,CGGAGAGCTTGGGTTCTAACCTGTTGCCT (site CTGAGAGCTAG),0
8,CGGAGCCCTTGGGTTCTAACCTGTTGCCT (site CAAAGCCCTAG),0.0117
9,CGGAGCCCTTGGGTTCTAACCTGTTGCCT (site CGGAGCCCTAG),1.27
10,CGGATCCCTTGGGTTCTAACCTGTTGCCT (site CAGATCCCTAG),0.555
11,CGGATCCCTTGGGTTCTAACCTGTTGCCT (site CCGATCCCTAG),0.159
12,CGGATCCCTTGGGTTCTAACCTGTTGCCT (site CGGATCCCTAG),1.39
13,CGGATCCCTTGGGTTCTAACCTGTTGCCT (site CTGATCCCTAG),0.284
14,CGGCGTACTTGGGTTCTAACCTGTTGCCT (site CGACGTACTAG),0.14
15,CGGCGTACTTGGGTTCTAACCTGTTGCCT (site CGCCGTACTAG),0.103
16,CGGCGTACTTGGGTTCTAACCTGTTGCCT (site CGGCGTACTAG),0.959
17,CGGCGTACTTGGGTTCTAACCTGTTGCCT (site CGTCGTACTAG),0.069
18,CGGCGTCCTTGGGTTCTAACCTGTTGCCT (site CGGCGTCCTAG),1.24
19,CGGCGTCCTTGGGTTCTAACCTGTTGCCT (site CGGCGTCCTCG),0.0739
20,CGGCGTCCTTGGGTTCTAACCTGTTGCTA (site CGGAGTCCTTA),0.0265
21,CGGCGTCCTTGGGTTCTAACCTGTTGCTA (site CGGCGTCCTTA),0.452
22,CGGCGTCCTTGGGTTCTAACCTGTTGCTA (site CGGGGTCCTTA),0.113

row,Sequence,recombinant barcode read abundance (log10)
1,CGGCGTCCTTGGGTTCTAACCTGTTGCTA (site CGGTGTCCTTA),0.42
2,CGGCTACCTTGGGTTCTAACCTGTTGCCT (site CAGCTACCTAG),0.194
3,CGGCTACCTTGGGTTCTAACCTGTTGCCT (site CCGCTACCTAG),0.13
4,CGGCTACCTTGGGTTCTAACCTGTTGCCT (site CGGCTACCTAG),1.96
5,CGGCTACCTTGGGTTCTAACCTGTTGCCT (site CTGCTACCTAG),0.429
6,CGGCTCACTTGGGTTCTAACCTGTTGCTA (site CGGCACACTAA),0.0598
7,CGGCTCACTTGGGTTCTAACCTGTTGCTA (site CGGCTCACTTA),2.31
8,CGGCTGACTTGGGTTCTAACCTGTTGCCT (site CGGCTCACTAG),0.446
9,CGGCTGACTTGGGTTCTAACCTGTTGCCT (site CGGCTGACTAG),1.46
10,CGGGCCTCTTGGGTTCTAACCTGTTGCTA (site CGGGCCTCTAA),0.185
11,CGGGCCTCTTGGGTTCTAACCTGTTGCTA (site CGGGCCTCTCA),0
12,CGGGCCTCTTGGGTTCTAACCTGTTGCTA (site CGGGCCTCTGA),1.27
13,CGGGCCTCTTGGGTTCTAACCTGTTGCTA (site CGGGCCTCTTA),2.38
14,CGGGCCTCTTGGGTTCTAACCTGTTGCTT (site CGGGCCTCTAA),2.03
15,CGGGCCTCTTGGGTTCTAACCTGTTGCTT (site CGGGCCTCTCA),0.148
16,CGGGCCTCTTGGGTTCTAACCTGTTGCTT (site CGGGCCTCTGA),0.469
17,CGGGCCTCTTGGGTTCTAACCTGTTGCTT (site CGGGCCTCTTA),0.336
18,CGGGCGCCTTGGGTTCTAACCTGTTGCGG (site CGGCCGACTCC),0.0157
19,CGGGCGCCTTGGGTTCTAACCTGTTGCGG (site CGGGCGCCTCC),2.14
20,CGGGTGCCTTGGGTTCTAACCTGTTGCCT (site CAGGTGCCTAG),0.379
21,CGGGTGCCTTGGGTTCTAACCTGTTGCCT (site CCGGTGCCTAG),0.717
22,CGGGTGCCTTGGGTTCTAACCTGTTGCCT (site CGGGTGCCTAG),1.66

row,Sequence,recombinant barcode read abundance (log10)
1,CGGGTGCCTTGGGTTCTAACCTGTTGCCT (site CTGGTGCCTAG),0.0879
2,CGGTAACCTTGGGTTCTAACCTGTTGCCT (site AGGTAACCTAG),0.429
3,CGGTAACCTTGGGTTCTAACCTGTTGCCT (site CGGTAACCTAG),0.761
4,CGGTAACCTTGGGTTCTAACCTGTTGCCT (site GGGTAACCTAG),0.185
5,CGGTAACCTTGGGTTCTAACCTGTTGCCT (site TGGTAACCTAG),0.753
6,CGGTAGTCTTGGGTTCTAACCTGTTGCTT (site CGGTAGTCTAA),1.41
7,CGGTAGTCTTGGGTTCTAACCTGTTGCTT (site CGGTAGTCTCA),0.0659
8,CGGTGTCCTTGGGTTCTAACCTGTTGCTA (site CGGAGTCCTTA),0.0633
9,CGGTGTCCTTGGGTTCTAACCTGTTGCTA (site CGGCGTCCTTA),0.586
10,CGGTGTCCTTGGGTTCTAACCTGTTGCTA (site CGGGGTCCTTA),0.225
11,CGGTGTCCTTGGGTTCTAACCTGTTGCTA (site CGGTGTCCTTA),1.33
12,CGGTTTCCTTGGGTTCTAACCTGTTGCCT (site CGGTTTCCTAG),0.848
13,CGGTTTCCTTGGGTTCTAACCTGTTGCCT (site CTATTTCCTAG),0.0218
14,CGTAAGTCTTGGGTTCTAACCTGTTGCCT (site CGTAAGTCTAG),1.11
15,CGTAAGTCTTGGGTTCTAACCTGTTGCCT (site TATAAGTCTAG),0.0991
16,CGTACGACTTGGGTTCTAACCTGTTGCAT (site CGTACGACTAT),0.215
17,CGTACGACTTGGGTTCTAACCTGTTGCAT (site CGTCCGACTAT),0.451
18,CGTACGACTTGGGTTCTAACCTGTTGCAT (site CGTGCGACTAT),0.236
19,CGTACGACTTGGGTTCTAACCTGTTGCAT (site CGTTCGACTAT),0.0932
20,CGTAGGTCTTGGGTTCTAACCTGTTGCCT (site CGTAGGTCTAG),0.101
